Active and inactive are the calls of the source.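 Rule for the calls: active = a drop in nitrite signal whose fitted half-maximal concentration is at most ten times the top tested dose; inconclusive = flat fit with 30 to 70% inhibition, or poor curve fit; inactive = the rest.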
Experiment: inhibitors of cytokine-induced nitrite release, dose response, cell-based, Griess absorbance, INS-1E, dry powder, set 3 (AID 488870)
Details: INS-1E cytokine-induced nitrite, Griess absorbance, 48 h; at 19.5 µM (top of the series)

C[C@@H]1CN([C@@H](C)CO)C(=O)c2cccc(NS(=O)(=O)c3ccccc3)c2O[C@H]1CN(C)Cc1ccc(C(F)(F)F)cc1
activity change, negative = inhibition: -12.5% (inactive)

C[C@@H]1CN([C@@H](C)CO)C(=O)c2cccc(NC(=O)Nc3cccc4ccccc34)c2O[C@H]1CN(C)S(=O)(=O)c1ccc2c(n1)N(C)CCO2
activity change, negative = inhibition: -13.9% (inactive)

COc1ccc(S(=O)(=O)N(C)C[C@H]2Oc3c(NC(=O)Nc4cccc5ccccc45)cccc3C(=O)N([C@@H](C)CO)C[C@@H]2C)cc1
activity change, negative = inhibition: -9.04% (inactive)

COc1ccc(S(=O)(=O)N(C)C[C@@H]2Oc3c(NC(=O)c4cnccn4)cccc3C(=O)N([C@@H](C)CO)C[C@H]2C)cc1
activity change, negative = inhibition: -9.05% (inactive)

COc1ccc(S(=O)(=O)N(C)C[C@@H]2Oc3c(NC(=O)C4CCOCC4)cccc3C(=O)N([C@@H](C)CO)C[C@H]2C)cc1
activity change, negative = inhibition: 5.9% (inactive)

C[C@@H]1CN([C@@H](C)CO)C(=O)c2cccc(NC(=O)Nc3cccc4ccccc34)c2O[C@H]1CN(C)CC1CC1
activity change, negative = inhibition: -0.187% (inactive)

COc1ccc(S(=O)(=O)N(C)C[C@@H]2Oc3c(cccc3N(C)C)C(=O)N([C@@H](C)CO)C[C@H]2C)cc1
activity change, negative = inhibition: 4.92% (inactive)

COc1ccc(S(=O)(=O)N(C)C[C@@H]2Oc3c(NC(=O)NC(C)C)cccc3C(=O)N([C@@H](C)CO)C[C@H]2C)cc1
activity change, negative = inhibition: 7.35% (inactive)

COc1ccc(S(=O)(=O)N(C)C[C@@H]2Oc3c(NS(=O)(=O)c4cn(C)cn4)cccc3C(=O)N([C@@H](C)CO)C[C@H]2C)cc1
activity change, negative = inhibition: 4.99% (inactive)

COc1ccc(NC(=O)Nc2cccc3c2O[C@@H](CN(C)S(=O)(=O)c2ccc(OC)cc2)[C@H](C)CN([C@@H](C)CO)C3=O)cc1
activity change, negative = inhibition: -3.9% (inactive)

Cc1noc(C)c1NC(=O)N(C)C[C@@H]1Oc2c(NC(=O)Nc3cccc4ccccc34)cccc2C(=O)N([C@@H](C)CO)C[C@H]1C
activity change, negative = inhibition: -7.11% (inactive)

COc1ccc(S(=O)(=O)N(C)C[C@@H]2Oc3c(NC(=O)C4CCCCC4)cccc3C(=O)N([C@@H](C)CO)C[C@H]2C)cc1
activity change, negative = inhibition: -0.334% (inactive)

C[C@@H]1CN([C@@H](C)CO)C(=O)c2cccc(NC(=O)Nc3ccc(F)cc3)c2O[C@H]1CN(C)S(=O)(=O)c1ccc(F)cc1
activity change, negative = inhibition: -6.48% (inactive)

COc1ccc(S(=O)(=O)N(C)C[C@@H]2Oc3c(NC(=O)Nc4cccc5ccccc45)cccc3C(=O)N([C@H](C)CO)C[C@@H]2C)cc1
activity change, negative = inhibition: 3.88% (inactive)

COc1ccc(S(=O)(=O)N(C)C[C@@H]2Oc3c(NC(=O)Nc4cccc5ccccc45)cccc3C(=O)N([C@@H](C)CO)C[C@H]2C)cc1OC
activity change, negative = inhibition: -18.5% (inactive)

COc1ccc(S(=O)(=O)N(C)C[C@@H]2Oc3c(NS(=O)(=O)c4ccc(F)cc4)cccc3C(=O)N([C@@H](C)CO)C[C@H]2C)cc1
activity change, negative = inhibition: 9.8% (inactive)

COc1ccc(S(=O)(=O)N(C)C[C@@H]2Oc3c(NS(=O)(=O)c4ccc(C)cc4)cccc3C(=O)N([C@@H](C)CO)C[C@H]2C)cc1
activity change, negative = inhibition: -5.68% (inactive)

C[C@@H]1CN([C@@H](C)CO)C(=O)c2cccc(NC(=O)Nc3cccc4ccccc34)c2O[C@H]1CN(C)S(=O)(=O)c1cccs1
activity change, negative = inhibition: -14.1% (inactive)

Cc1ccc(S(=O)(=O)N(C)C[C@@H]2Oc3c(NC(=O)Nc4ccccc4)cccc3C(=O)N([C@H](C)CO)C[C@H]2C)cc1
activity change, negative = inhibition: 11.6% (inactive)

COc1ccc(S(=O)(=O)N(C)C[C@@H]2Oc3c(NC(=O)Nc4c(C)noc4C)cccc3C(=O)N([C@@H](C)CO)C[C@H]2C)cc1
activity change, negative = inhibition: -4.75% (inactive)

C[C@@H]1CN([C@@H](C)CO)C(=O)c2cccc(NC(=O)Nc3ccccc3)c2O[C@H]1CN(C)S(=O)(=O)c1ccc(F)cc1
activity change, negative = inhibition: -6.44% (inactive)

C[C@@H]1CN([C@@H](C)CO)C(=O)c2cccc(NC(=O)Nc3cccc4ccccc34)c2O[C@H]1CN(C)S(=O)(=O)c1ccc(Cl)cc1
activity change, negative = inhibition: -22.9% (inactive)

COc1ccc(S(=O)(=O)N(C)C[C@@H]2Oc3c(NC(=O)Nc4ccc5c(c4)OCO5)cccc3C(=O)N([C@@H](C)CO)C[C@H]2C)cc1
activity change, negative = inhibition: -8.76% (inactive)

CNC[C@@H]1Oc2c(NC(=O)Nc3cccc4ccccc34)cccc2C(=O)N([C@@H](C)CO)C[C@H]1C
activity change, negative = inhibition: 3.1% (inactive)

COc1ccc(S(=O)(=O)N(C)C[C@@H]2Oc3c(NC(=O)Nc4ccccc4)cccc3C(=O)N([C@H](C)CO)C[C@H]2C)cc1
activity change, negative = inhibition: -11% (inactive)

COc1ccc(S(=O)(=O)N(C)C[C@@H]2Oc3c(NS(=O)(=O)c4ccc(Cl)cc4)cccc3C(=O)N([C@@H](C)CO)C[C@H]2C)cc1
activity change, negative = inhibition: -7.18% (inactive)

COc1ccc(S(=O)(=O)N(C)C[C@@H]2Oc3ccc(NC(=O)Nc4cccc5ccccc45)cc3C(=O)N([C@@H](C)CO)C[C@H]2C)cc1
activity change, negative = inhibition: -15.4% (inactive)

Cc1ccc(S(=O)(=O)N(C)C[C@@H]2Oc3c(NC(=O)Nc4cccc5ccccc45)cccc3C(=O)N([C@H](C)CO)C[C@H]2C)cc1
activity change, negative = inhibition: -10.1% (inactive)

C[C@@H]1CN([C@@H](C)CO)C(=O)c2cccc(NC(=O)Nc3ccccc3)c2O[C@H]1CN(C)S(=O)(=O)c1ccc(Cl)cc1
activity change, negative = inhibition: -8% (inactive)

C[C@@H]1CN([C@H](C)CO)C(=O)c2cccc(NC(=O)Nc3ccccc3)c2O[C@H]1CN(C)S(=O)(=O)c1ccc(Cl)cc1
activity change, negative = inhibition: 4.79% (inactive)

Cc1ccc(S(=O)(=O)N(C)C[C@@H]2Oc3c(NC(=O)Nc4ccc(F)cc4)cccc3C(=O)N([C@@H](C)CO)C[C@H]2C)cc1
activity change, negative = inhibition: -6.25% (inactive)

Cc1ccc(S(=O)(=O)N(C)C[C@@H]2Oc3c(NC(=O)Nc4ccccc4)cccc3C(=O)N([C@@H](C)CO)C[C@H]2C)cc1
activity change, negative = inhibition: -10.1% (inactive)

COc1ccc(S(=O)(=O)N(C)C[C@@H]2Oc3c(NC(=O)Nc4ccc(F)cc4)cccc3C(=O)N([C@@H](C)CO)C[C@H]2C)cc1
activity change, negative = inhibition: -7.65% (inactive)

C[C@H]1CN([C@@H](C)CO)C(=O)c2cccc(NC(=O)NC3CCCCC3)c2O[C@@H]1CN(C)S(C)(=O)=O
activity change, negative = inhibition: 3.92% (inactive)

COc1ccc(S(=O)(=O)N(C)C[C@@H]2Oc3c(NC(=O)Nc4ccccc4)cccc3C(=O)N([C@@H](C)CO)C[C@H]2C)cc1
activity change, negative = inhibition: -7.93% (inactive)

COc1ccc(S(=O)(=O)Nc2cccc3c2O[C@@H](CN(C)S(=O)(=O)c2ccc(OC)cc2)[C@H](C)CN([C@@H](C)CO)C3=O)cc1
activity change, negative = inhibition: -10.4% (inactive)

COc1ccc(S(=O)(=O)N(C)C[C@@H]2Oc3c(NC(=O)c4ccc(-c5nccs5)cc4)cccc3C(=O)N([C@@H](C)CO)C[C@H]2C)cc1
activity change, negative = inhibition: -2.29% (inactive)

C[C@@H]1CN([C@@H](C)CO)C(=O)c2cccc(NC(=O)Nc3cccc4ccccc34)c2O[C@H]1CN(C)S(=O)(=O)c1cn(C)cn1
activity change, negative = inhibition: -10.7% (inactive)

C[C@@H]1CN([C@@H](C)CO)C(=O)c2cccc(NC(=O)Nc3ccc(F)cc3)c2O[C@H]1CN(C)S(=O)(=O)c1ccc(Cl)cc1
activity change, negative = inhibition: -9.62% (inactive)

COc1ccc(S(=O)(=O)N(C)C[C@@H]2Oc3c(NS(C)(=O)=O)cccc3C(=O)N([C@@H](C)CO)C[C@H]2C)cc1
activity change, negative = inhibition: -4.1% (inactive)
